PMC6629894, “Ruthenium Complexes Containing Heterocyclic Thioamidates Trigger Caspase-Mediated Apoptosis Through MAPK Signaling in Human Hepatocellular Carcinoma Cells” (Frontiers in Oncology, 2019)

Experiments:
ERK1/2 (pT202/pY204) = experiment: Phosflow analysis of phosphorylated MAPK; type: cell-based, human; conditions: HepG2, 10 μM, 15 min
Method: (§1) Phosphorylated extracellular signal-regulated kinase (ERK), JNK/SAPK and p38 MAPK were quantified by flow cytometry as previously described ([26]). The cells were collected and resuspended in 0.5–1 mL of 4% formaldehyde and fixed for 10 min at 37°C. Then, the tubes were chilled on ice for 1 min. The cells were permeabilized by slowly adding ice-cold 100% methanol to the cooled cells while gently vortexing to a final concentration of 90% methanol and incubating for 30 min on ice. After washing with incubation buffer (0.5% bovine serum albumin in PBS), PE mouse anti-JNK/SAPK (pT183/pY185) (ID 562480), PE mouse anti-p38 MAPK (pT180/pY182) (ID 612565), PE mouse anti-ERK1/2 (pT202/pY204) (ID 612566) or PE mouse IgG1,κ isotype control (ID 555749) antibodies, all from BD Biosciences, were added and incubated for 1 h at room temperature. Finally, the cells were washed with PBS, and the cell fluorescence was measured by flow cytometry.
(§2) For all flow cytometry analyses, at least 10^4 events were recorded per sample using a BD LSRFortessa cytometer, BD FACSDiva Software (BD Biosciences) and FlowJo Software 10 (FlowJo Lcc; Ashland, OR, USA). Cellular debris was omitted from the analysis.

JNK/SAPK (pT183/pY185) = experiment: Phosflow analysis of phosphorylated MAPK; type: cell-based, human; conditions: HepG2, 10 μM
Method: as §1, §2

p38 MAPK (pT180/pY182) = experiment: Phosflow analysis of phosphorylated MAPK; type: cell-based, human; conditions: HepG2, 10 μM
Method: as §1, §2

HepG2 cells [1] = experiment: Trypan blue exclusion assay; type: cell-based, human
Method: (§3) For all subsequent in vitro experiments, 2 mL of a suspension of HepG2 cells were seeded (7 × 10^4 cells/mL) and incubated in a 24-well plate overnight to allow the cells to adhere to the plate surface.
In the trypan blue exclusion assay, the number of viable cells and non-viable cells (stained with trypan blue) were counted. Briefly, 90 μL was removed from the cell suspension, and 10 μL of trypan blue (0.4%) was added. Cell counting was performed using a light microscope with a hemocytometer filled with an aliquot of the homogenized cell suspension.

[2] = system: cancer cells with different histological types; experiment: Cytotoxicity, summary over the panel of cancer cells; type: cell-based; conditions: read-out: IC50 values against cancer cells (summary)
Method: (§4) Cytotoxicity was measured colorimetrically using an Alamar blue method that was performed as previously described ([20], [21]). Cells were seeded in 96-well plates for all experiments (7 × 10^4 cells/mL for adherent cells or 3 × 10^5 cells/mL for suspension cells in 100 μL of medium) and incubated overnight at 37°C with 5% CO2 to allow for adherence. The complexes were dissolved in 0.5% dimethyl sulfoxide (DMSO, Vetec Química Fina) at eight different concentrations from 0.19 to 25 μg/mL and were added to each well and incubated for 72 h. The negative control was treated with the vehicle (0.5% DMSO) that was used to solubilize and dilute the complexes. […] Four (for cell lines) or 24 h (for PBMCs) before the end of incubation, 20 μL of a stock solution (0.312 mg/mL) of resazurin (Sigma-Aldrich Co.) was added to each well. Absorbance was measured at 570 and 600 nm using a SpectraMax 190 Microplate Reader (Molecular Devices, Sunnyvale, CA, USA).

human topoisomerase IB = system: human topoisomerase IB; design: method as in PMID 26795676; conditions: ref [18], [19]; cited from earlier work
[3] = system: HL-60 (human promyelocytic leukemia); experiment: Alamar blue cytotoxicity assay, 72 h; type: cell-based
From the text: (§5) The cell lines HepG2 (human hepatocellular carcinoma), HL-60 (human promyelocytic leukemia), K-562 (human chronic myelogenous leukemia), B16-F10 (mouse melanoma), MCF-7 (human breast carcinoma), HCT116 (human colon carcinoma), HSC-3 (human oral squamous cell carcinoma), SCC-4 (human oral squamous cell carcinoma), MRC-5 (human lung fibroblast), WT SV40 MEF (wild-type immortalized mouse embryonic fibroblast), and BAD KO SV40 MEF (BAD gene knockout immortalized mouse embryonic fibroblasts) were obtained from the American Type Culture Collection (ATCC, Manassas, VA, USA). Cells were cultured in RPMI 1640 medium (Gibco-BRL, Gaithersburg, MD, USA) with 10% fetal bovine serum (Life, Carlsbad, CA, USA), 2 mM L-glutamine (Vetec Química Fina, Duque de Caxias, RJ, Brazil) and 50 μg/mL gentamycin (Life). For all experiments, adherent cells were collected by treatment with 0.25% trypsin-EDTA solution (Gibco-BRL). All cell lines were cultured in flasks at 37°C in 5% CO2 and were subcultured every 3–4 days to maintain exponential growth. All cell lines were tested for mycoplasma using a mycoplasma staining kit (Sigma-Aldrich Co.) to validate that the cells that were used were free from contamination.
as §4

[4] = system: MCF-7 (human breast carcinoma); experiment: Alamar blue cytotoxicity assay, 72 h; type: cell-based
From the text: as §5, §4

[5] = system: SCC-4 (human oral squamous cell carcinoma); experiment: Alamar blue cytotoxicity assay, 72 h; type: cell-based
From the text: as §5, §4

[6] = system: HSC-3 (human oral squamous cell carcinoma); experiment: Alamar blue cytotoxicity assay, 72 h; type: cell-based
From the text: as §5, §4

[7] = system: HCT116 (human colon carcinoma); experiment: Alamar blue cytotoxicity assay, 72 h; type: cell-based
From the text: as §5, §4

HepG2 cells [8] = experiment: DNA content: internucleosomal DNA fragmentation and cell cycle distribution by flow cytometry; type: cell-based, human; conditions: 24 and 48 h
Method: as §3
In this assay, cells were harvested in a permeabilization solution containing 0.1% Triton X-100, 2 μg/mL propidium iodide, 0.1% sodium citrate and 100 μg/mL RNAse (all from Sigma-Aldrich Co.) and incubated in the dark for 15 min at room temperature.
as §2

HepG2 cells [9] = experiment: Cell morphology: May-Grunwald-Giemsa staining and light scattering; type: cell-based, human; conditions: 24 and 48 h
Method: as §3
To evaluate alterations in the morphology, cells were cultured on a coverslip and stained with May-Grunwald-Giemsa. Morphological changes were examined by light microscopy (Olympus BX41) using Image-Pro software (Media Cybernetics).

Row | SMILES | IC50 [2] | supercoiled DNA relaxation mediated by human topoisomerase IB (human topoisomerase IB) | Selectivity index (SI = IC50 [noncancerous cells]/IC50 [cancer cells]) ([3]; MRC-5 vs HL-60) | Selectivity index (SI = IC50 [noncancerous cells]/IC50 [cancer cells]) ([3]; PBMCs vs HL-60) | Selectivity index (SI = IC50 [noncancerous cells]/IC50 [cancer cells]) ([4]; MRC-5 vs MCF-7) | Selectivity index (SI = IC50 [noncancerous cells]/IC50 [cancer cells]) ([4]; PBMCs vs MCF-7) | Selectivity index (SI = IC50 [noncancerous cells]/IC50 [cancer cells]) ([5]; MRC-5 vs SCC-4) | Selectivity index (SI = IC50 [noncancerous cells]/IC50 [cancer cells]) ([5]; PBMCs vs SCC-4) | Selectivity index (SI = IC50 [noncancerous cells]/IC50 [cancer cells]) ([6]; MRC-5 vs HSC-3) | Selectivity index (SI = IC50 [noncancerous cells]/IC50 [cancer cells]) ([6]; PBMCs vs HSC-3) | Selectivity index (SI = IC50 [noncancerous cells]/IC50 [cancer cells]) ([7]; MRC-5 vs HCT116) | Selectivity index (SI = IC50 [noncancerous cells]/IC50 [cancer cells]) ([7]; PBMCs vs HCT116) | reduction of the number of viable cells vs negative control (HepG2 cells [1]; 2 μM, 24 h) | reduction of the number of viable cells vs negative control (HepG2 cells [1]; 2 μM, 48 h) | further results
1 | Cn1ccnc1[S-].F[P-](F)(F)(F)(F)F.[Ru+2].c1ccc(-c2ccccn2)nc1.c1ccc(P(CCCCP(c2ccccc2)c2ccccc2)c2ccccc2)cc1 [Complex 1, [Ru(mmi)(bipy)(dppb)]PF6] | < 10 µM | inhibit the supercoiled DNA relaxation | – | – | – | – | – | – | – | – | – | – | – | – | phosphorylation of ERK1/2 (ERK1/2 (pT202/pY204)): induced the phosphorylation of ERK1/2; phosphorylation of JNK/SAPK (JNK/SAPK (pT183/pY185)): no significant increase; phosphorylation of p38 MAPK (p38 MAPK (pT180/pY182)): no significant increase; reduction of the number of viable cells vs negative control (HepG2 cells [1]; 5 μM, 24 h): 40.1%; reduction of the number of viable cells vs negative control (HepG2 cells [1]; 5 μM, 48 h): 80.9%; reduction of the number of viable cells vs negative control (HepG2 cells [1]; 10 μM, 24 h): 78.9%; reduction of the number of viable cells vs negative control (HepG2 cells [1]; 10 μM, 48 h): 93.9%
2 | F[P-](F)(F)(F)(F)F.[Ru+2].[S-]C1=NCCS1.c1ccc(-c2ccccn2)nc1.c1ccc(P(CCCCP(c2ccccc2)c2ccccc2)c2ccccc2)cc1 [Complex 2, [Ru(tzdt)(bipy)(dppb)]PF6] | < 10 µM | inhibit the supercoiled DNA relaxation | 1.5 | 2.4 | 0.2 | 0.4 | 0.4 | 0.7 | 0.7 | 1.2 | 0.6 | 1.0 | 42.1% | 67.3% | IC50 ([4]; read-out: IC50 and 95% CI, MCF-7, 72 h): 7.3 µM; reduction of the number of viable cells vs negative control (HepG2 cells [1]; 4 μM, 24 h): 58.6%; reduction of the number of viable cells vs negative control (HepG2 cells [1]; 4 μM, 48 h): 93.1%
3 | COc1cccc2c1C(=O)c1c(O)c3c(c(O)c1C2=O)C[C@@](O)(C(=O)CO)C[C@@H]3O[C@H]1C[C@H](N)[C@H](O)[C@H](C)O1 [Doxorubicin, reference compound] | – | – | 2.0 | 12.5 | 1.0 | 6.3 | 0.1 | 0.6 | 0.8 | 5.0 | 1.3 | 8.3 | 53.1% | 74.7% | cell cycle distribution (HepG2 cells [8]; 2 μM): cell cycle arrest at the G2/M phase; internucleosomal DNA fragmentation (sub-G0/G1) (HepG2 cells [8]): DNA fragmentation; IC50 ([5]; Homo sapiens, SCC-4, 72 h, read-out: IC50 and 95% CI): 4 µM; cell morphology (HepG2 cells [9]): apoptosis-related morphological alterations
